From patent US20110028717A1, “AZAINDOLE DERIVATIVE HAVING PGD2 RECEPTOR ANTAGONISTIC ACTIVITY” (priority 2005, published 2011) come the findings set out here.

The structures appear in SMILES notation.

Assay [1] has as its target T1, DP receptor (Homo sapiens, UniProt Q13258).
T1 construct: endogenous in cells; host or cells: washed platelets from peripheral blood of a healthy volunteer
T1 sequence (Q13258 1-359): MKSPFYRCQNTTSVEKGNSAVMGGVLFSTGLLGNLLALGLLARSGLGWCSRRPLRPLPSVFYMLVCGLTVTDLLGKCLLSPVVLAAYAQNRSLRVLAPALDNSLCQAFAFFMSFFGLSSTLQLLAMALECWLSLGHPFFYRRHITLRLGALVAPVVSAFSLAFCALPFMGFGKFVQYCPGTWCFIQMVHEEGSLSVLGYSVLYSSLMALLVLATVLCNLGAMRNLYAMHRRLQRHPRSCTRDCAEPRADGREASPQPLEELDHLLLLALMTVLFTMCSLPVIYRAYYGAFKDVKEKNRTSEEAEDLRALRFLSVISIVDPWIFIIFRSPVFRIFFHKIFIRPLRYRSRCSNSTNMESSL
In words: Receptor binding assay, [3H]-PGD2, platelet membrane. As to conditions: [3H]-PGD2, human platelet membrane. The procedure: A prepared WP was homogenated and a membrane fraction was collected with high-speed centrifugation. A compound of the present invention or a reference compound A (No. IC-73 in WO 2003/097598) was added to the plate and [^3H]-PGD2 was also added. A platelet membrane, a protein concentration is 2 mg/mL, was added and mixed in the plate, and placed on ice for 2 hours. The reaction solution was transferred to a low protein-adsorptive filter and washed with a wash solution eight times using a cell harvester. After the final washing, water was removed sufficiently, and micoscinti was added. DP inhibitory activity was investigated by measuring [^3H] by using Micro Beta.

Assay [2] deals with T1, DP receptor. In words: cAMP assay with washed platelets (PGD2-stimulated cAMP, HTRF). The conditions noted are these: 100 nM PGD2, cAMP by HTRF, read-out: IC50 (50% DP-inhibitory concentration in the cAMP assay). Type of assay: cell-based. The protocol: 30 ml of peripheral blood was collected from a healthy volunteer using a syringe containing one ninth amount of 3.8% sodium citrate for diagnosis. After being centrifuged at 180 g for 10 minutes at room temperature, a supernatant was collected and used as Platelet Rich Plasma (PRP). The resulting PRP was washed with wash buffer and centrifuged three times (Washed Platelet: WP) and platelets were counted by a microcell counter. WP was added to a plate in amount of 1.5×10^8/assay and the plate was treated with 3-isobutyl-1-methylxanthin (IBMX; 0.5 mM) for 5 minutes. A reaction was initiated by adding 100 nM of PGD2 5 min after an addition of a test compound. The reaction was terminated with an addition of 1N hydrochloric acid after 2 minutes and the cells were destructed using 12% triton X-100. An amount of cAMP in the supernatant was assayed by Homogeneous […] (HTRF)
Background: Cyclic AMP is a second messenger, typically raised through Gs and lowered through Gi signalling.

The test system of assay [3] is Brown Norway (BN) Rats. In words: OVA asthma model of rat (hyperresponsive airway, infiltration of inflammatory cells, mucus secretion). Type of assay: in vivo. The conditions noted are these: 10 mg/kg p.o. once a day for three days; for inhibition rate (%) mucus-secretion: mucin in airway lavage fluid vs control group; for inhibition rate (%) infiltration of inflammatory cells: total cell number in bronchoalveolar washings vs control group; for inhibition rate (%) increased hyperresponsive airway: vs control group, AUC of acetylcholine response. The procedure:
Brown Norway (BN) Rats were sensitized by i.p. administration of 0.1 mg/mL of ovalbumin (OVA) and 1 mg of aluminum hydroxide gel. A solution of 1% OVA was aerosolized by ultrasonic nebulizer (NE-U 17) and the rats were subjected to inhalation exposure of the aerosol for 30 minutes in an exposing chamber 12, 19, 26 and 33 days after the sensitization. One hour before the 4th exposure of the antigen, compounds of the present invention were administered in a dose of 10 mg/kg p.o. once a day for three days consecutively. In a control group, 0.5% of methyl cellulose was administered in place of the compound of the present invention.
Under pentobarbital anesthesia (80 mg/kg, i.p.), acetylcholine (3.9, 7.8, 15.6, 31.3, 62.5, 125, 250 and 500 μg/kg) was injected to jugular vein of the rats successively from a lower dose at intervals of 5 minutes three days after the fourth exposure to the antigen, and immediate contractile reaction of airways (an increase of insufflation pressure) was measured by a modified method of Konnzett & Rössler. Inhibition rate of increased hyperresponsive airway against the control group was calculated based on area under curve (AUC) obtained from concentration-response curve of acetylcholine.
After the measurement of increased hyperresponsive airway was completed, bronchoalveoli of the rats were washed with 5 mL of saline three times. Total cell number in the washings was counted by a hemacytometer under light microscope, and inhibition rates of infiltration of inflammatory cells against the control group were calculated. Further, muchin in the airway lavage fluid was measured by ELIZA method using jacalin, a muchin-binding lectin, and the inhibition rates of mucus-secretion against the control group were calculated.

As for `CC(C)Oc1ccc(S(=O)(=O)N2CCC(c3cn(CC(=O)O)c4ncccc34)CC2)cc1` [Compound I-1], the Ki – broadly, the dissociation constant of the complex between target and ligand, obtained from inhibition or displacement – in assay [1] was 1 nM. For the same molecule, the IC50 in assay [2] came out at 0.58 nM. Besides, in assay [3], the “inhibition rate (%) mucus-secretion” value is recorded as 68%, the “inhibition rate (%) infiltration of inflammatory cells” value (“inhibition rate (%) infiltration” for short) is 63% and the “inhibition rate (%) increased hyperresponsive airway” value came out at 55%.

On to `CC[C@@H](C)Oc1ccc(S(=O)(=O)N2CCC(c3cn(CC(=O)O)c4ncccc34)CC2)cc1` [Compound I-6], for which the Ki in assay [1] was found to be 1 nM. In addition, the IC50 in assay [2] is 0.93 nM. Moreover, in assay [3], the “inhibition rate (%) mucus-secretion” value was 77%, the “inhibition rate (%) infiltration” value came to 60% and the “inhibition rate (%) increased hyperresponsive airway” value was determined as 69%.

In the case of `CC(C)Oc1ccc(S(=O)(=O)N2CCC(c3cn(CC(=O)O)c4nc(Br)ccc34)CC2)cc1` [Compound I-13], affinity in assay [1] was put at a Ki of 0.85 nM. Further, the IC50 in assay [2] stood at 0.51 nM. Moreover, in assay [3], the “inhibition rate (%) mucus-secretion” value stood at 44%, the “inhibition rate (%) infiltration” value is on record as 62% and the “inhibition rate (%) increased hyperresponsive airway” value is recorded as 58%.

On to `COc1ccc2c(C3CCN(S(=O)(=O)c4ccc(OC(C)C)cc4)CC3)cn(CC(=O)O)c2n1` [Compound I-14], for which the Ki in assay [1] amounted to 0.61 nM. The IC50 in assay [2] amounted to 0.33 nM. In assay [3], the “inhibition rate (%) mucus-secretion” value amounted to 88%, the “inhibition rate (%) infiltration” value came to 68% and the “inhibition rate (%) increased hyperresponsive airway” value worked out at 84%.

As to `CC(C)Oc1ccc(S(=O)(=O)N2CCC(c3cn(CC(=O)O)c4nc(-c5ccccc5)ccc34)CC2)cc1` [Compound I-16], the IC50 in assay [2] turned out to be 0.64 nM.

As for `CC(C)Oc1ccc(S(=O)(=O)N2CCC(c3cn(CC(=O)O)c4nc(-c5ccc(F)cc5)ccc34)CC2)cc1` [Compound I-17], the Ki in assay [1] came to 0.25 nM. The IC50 in assay [2] is 0.88 nM.

Turning to `CC(C)Oc1ccc(S(=O)(=O)N2CCC(c3cn(CC(=O)O)c4nc(-c5ccccn5)ccc34)CC2)cc1` [Compound I-19], in assay [2], the IC50 turned out to be 2.2 nM.

With `CC(C)Oc1ccc(S(=O)(=O)N2CCC(c3cn(CC(=O)O)c4nc(-c5nccs5)ccc34)CC2)cc1` [Compound I-20], the Ki in assay [1] came to 0.48 nM. Besides, the IC50 in assay [2] was 0.64 nM.

Turning to `CC(C)Oc1ccc(S(=O)(=O)N2CCC(c3cn(CC(=O)O)c4nc(NC(=O)OC(C)(C)C)ccc34)CC2)cc1` [Compound I-21], in assay [1], affinity was put at a Ki of 0.51 nM. For the same molecule, the IC50 in assay [2] was 1.9 nM.

On to `CC(C)Oc1ccc(S(=O)(=O)N2CCC(c3cn(CC(=O)O)c4nc(-c5ccoc5)ccc34)CC2)cc1` [Compound I-25], for which the IC50 in assay [2] is 1.1 nM.

Take `CC(C)Oc1ccc(S(=O)(=O)N2CCC(c3cn(CC(=O)O)c4nc(-c5ccco5)ccc34)CC2)cc1` [Compound I-26]: the IC50 in assay [2] worked out at 1.7 nM.

As for `CCOc1ccc2c(C3CCN(S(=O)(=O)c4ccc(OC(C)C)cc4)CC3)cn(CC(=O)O)c2n1` [Compound I-29], the IC50 in assay [2] came out at 1.5 nM.

`CC(C)Oc1ccc(S(=O)(=O)N2CCC(c3cn(CC(=O)O)c4nc(OCc5ccccc5)ccc34)CC2)cc1` [Compound I-31]: in assay [2], the IC50 turned out to be 1.7 nM.
